# Test results taken from ChEMBL document CHEMBL1201862, “PubChem BioAssay data set” (2004).
# The source made the active and inactive calls. No stated cut-off is given here; in the data, active = IC50 of 10 µM or less and inactive = more.
# What was measured:
# [1] = molecular target: Neuropeptides B/W receptor type 1 (Homo sapiens, UniProt P48145); assay: GPR7 antagonist potency, late-stage follow-up, cell-based, fluorescence, dose response, set 5 (AID 588566); format: functional
# [2] = molecular target: Melanin-concentrating hormone receptor 1 (Homo sapiens, UniProt Q99705); assay: Late-stage fluorescence-based counterscreen for antagonists of the G-protein coupled receptor 7 (GPR7): cell-based dose response assay to identify antagonists of the melanin-concentrating hormone receptor 1 (MCHR1) Set 5.; format: functional
# Chain of Melanin-concentrating hormone receptor 1 (Q99705 whole entry): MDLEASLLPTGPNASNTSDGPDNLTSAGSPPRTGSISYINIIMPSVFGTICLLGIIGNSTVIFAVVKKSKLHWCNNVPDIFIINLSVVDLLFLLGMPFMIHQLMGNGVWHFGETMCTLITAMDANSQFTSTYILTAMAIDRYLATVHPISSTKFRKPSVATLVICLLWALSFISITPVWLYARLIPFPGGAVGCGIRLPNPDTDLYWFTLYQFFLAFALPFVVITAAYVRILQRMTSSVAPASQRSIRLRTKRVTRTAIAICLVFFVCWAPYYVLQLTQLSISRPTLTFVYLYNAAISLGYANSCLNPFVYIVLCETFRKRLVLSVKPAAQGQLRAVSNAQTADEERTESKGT
# Chain of Neuropeptides B/W receptor type 1 (P48145 whole entry): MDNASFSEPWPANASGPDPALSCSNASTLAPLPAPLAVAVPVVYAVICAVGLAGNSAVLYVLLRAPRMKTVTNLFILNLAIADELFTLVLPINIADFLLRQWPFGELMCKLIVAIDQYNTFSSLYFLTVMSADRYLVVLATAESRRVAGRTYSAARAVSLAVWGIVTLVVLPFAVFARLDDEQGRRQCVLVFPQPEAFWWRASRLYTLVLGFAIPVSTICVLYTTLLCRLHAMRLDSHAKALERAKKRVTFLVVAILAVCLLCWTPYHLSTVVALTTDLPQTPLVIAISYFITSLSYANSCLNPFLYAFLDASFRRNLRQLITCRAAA
smiles,measurement,setting,value
CCOc1ccc(Oc2c(Br)nn(Cc3cccc4ccccc34)c(=O)c2Cl)cc1,IC50,[1],18.3 µM (inactive)
same,IC50,[2],> 20 µM (inactive)
